# Results reported in US5276034A, “Substituted imidazolyl-alkyl-piperazine and -diazepine derivatives” (Syntex Pharmaceutical Ltd., priority 1991, dated 1994).
# Experiments:
# [1] = in vivo; cited from earlier work
# [2] = test system: barium-stimulated intestinal transit of the charcoal meal; test: Irritable bowel syndrome: intestinal transit of a charcoal meal in conscious mice, barium chloride stimulated; format: in vivo, mouse; settings: barium chloride 300 mg/kg oral; effect of Ba^+2 on transit
# Method: The test used is a modification of the method of Macht and Barba-Gose, J. Amer. Pharm. […] In the present model, intestinal transit in conscious mice (15-20 g) was accelerated with an oral dose of barium chloride (300 mg/kg) administered at the same time as the charcoal meal. The animals were sacrificed 10 minutes later and the distance travelled by the charcoal measured. 1-diphenyl-methyl-4-[(2-(4-methylphenyl)-5-methylimidazol-4-yl)methyl]-piperazine trihydrochloride was given as a 15 minute oral pre-treatment and its effect on non-stimulated or barium-stimulated intestinal transit of the charcoal meal was calculated.
Compound,risk of a second ischemic event [1],% Change Ba^+2 [2]
Clc1ccccc1CN1CCc2sccc2C1 [ticlopidine],demonstrated to reduce the risk of a second ischemic event,
"[Ba+2].[Cl-].[Cl-] [barium chloride, reference compound]",,+93%
